The subject of one series is CA1USR mAb. The experiment in a line: Competition enzyme immunoassay (EIA): nucleotide competitors against CA1USR mAb binding to 2′-deoxy-2′-C-allyl Uridine-KLH. Details: species or system murine. The following applies: competitor nucleotides 500 to 7.8 μg/ml preincubated with CA1USR mAb; DNA-Bind plates coated with 2′-deoxy-2′-C-allyl Uridine-KLH; FIG. 2. The method, then:
N-oxy-succinimide ester derivatized 96 well plates (DNA-Bind; Costar/Corning, Corning, N.Y.) were coated overnight at room temperature with 50 ng/well of 2′-deoxy-2′-C-allyl Uridine-KLH. After two washes with phosphate buffered saline, 0.1% Tween (PBS-T), plates were blocked for 1 h with PBS plus 1% casein (Pierce, Rockford, Ill.). Hybridoma supernatant was incubated on the plates for 1 h, after which wells were washed 4 times with PBS-T. Positive wells were detected with peroxidase-conjugated F(ab)′2 Goat anti-mouse IgG (Pel-Freez, Rogers, Ark.), and developed with TMB substrate (Kirkegaard and Perry, 2 component; Gaithersburg, Md.). Plates were read on a Molecular Dynamics plate reader (Molecular Dynamics, Sunnyvale, Calif.) at 450 nm with 595 nm correction.
DNA-Bind plates were coated overnight with 50 ng/well of 2′-deoxy-2′-C-allyl Uridine-conjugated KLH. 60 μl volumes of the purified CA1USR mAb, at a concentration of 500 ng/ml, were incubated at 37° C. for 30 min with 60 μl volumes of a series of concentrations of competitor nucleotides, from a concentration of 500 to 7.8 μg/ml. The antibody-competitor mixtures were then plated on the 2′-C-allyl-KLH coated DNA-Bind plates, and the EIA proceeded as described for the fusion screening assay.

The nature of series [1]: Immunohistochemistry with CA1USR mAb on kidneys of ribozyme-treated mice (in vivo localization). The following applies: for CA1USR mAb immunoreactivity (staining) in kidney: 3 subcutaneous injections of 100 mg/kg, kidney sections stained with CA1USR mAb 5 μg/ml. The method, then: Tissues were harvested from mice injected subcutaneously with either saline or a ribozyme from 60 to 120 min after injection. Animals were perfused with normal saline, then with a solution of 3% paraformaldehyde, 0.5% gluteraldehyde prior to tissue harvest. The tissue was placed in a 30% sucrose solution at 4° C. overnight, then removed, and frozen in a Gentle Jane (Instrumedics; Hackensack, N.J.) Snap-Freezing System with Cryo-Gel Embedding Medium (Instrumedics). Five micron (μm) sections were cut and placed on slides; the slides were allowed to air dry. Prior to staining, slides were quenched in 3% hydrogen peroxide and 0.5% horse serum in PBS, then blocked with M.O.M. Mouse Ig Blocking Reagent (Vector Labs, Burlingame, Calif.) for 1 h, washed with PBS, and stained with the CA1USR MAb at 5 μg/ml in M.O.M. diluent for 30 min. After washing, slides were incubated with M.O.M. Biotinylated Anti-Mouse IgG Reagent for 10 min, washed, and incubated with Vectastain Elite ABC Reagent for 5 min, then developed in DAB chromogen (Vector Labs). Slides were rinsed, counterstained with hematoxylin (Richard-Allan Scientific, Kalamazoo, Mich.), dehydrated, and cover-slipped. Slides were viewed on a Nikon Microphot FXA microscope.

Results on three compounds are retold here after patent US7071311B2, “Antibodies having specificity for 2′-C-allyl nucleic acids” (Sirna Therapeutics, Inc., priority 2002, dated 2006).

With `C=CC[C@@H]1[C@H](O)[C@@H](CO)O[C@H]1n1ccc(=O)[nH]c1=O` [2′-deoxy-2′-C-allyl Uridine], the “inhibition of binding of CA1USR mAb to 2′-deoxy-2′-C-allyl Uridine-KLH” value in the series with CA1USR mAb is given as “able to inhibit”.

“ANGIOZYME® ribozyme: synthetic 35-mer hammerhead ribozyme directed against VEGFR-1 mRNA with 2′-deoxy-2′-C-allyl Uridine at U4 (GAGUUGCUGAUGAGGCCGAAAGGCCGAAAGUCUG; 2'-deoxy-2'-C-allyl uridine at U4, chemistry not fully specified)”: the “Hematoxylin and eosin microscopy of granular structures in treated kidneys” value in series [1] (3 subcutaneous 100 mg/kg injections, kidney) is recorded as “basophilic in character”. The “CA1USR mAb immunoreactivity (staining) in kidney” value in series [1] is “intense 2′-deoxy-2′-C-allyl Uridine mAb immunoreactivity”.

As to “unmodified HERZYME™ ribozyme: ribozyme targeted to Her2 mRNA, structure different from the hammerhead motif (GCAGUGGCCGAAAGGCGAGUGAGGUCUAGCUCA; called unmodified, meaning without 2'-C-allyl U14, full chemistry not given here)”, the “CA1USR mAb immunoreactivity (staining) in kidney” value in series [1] was “no staining”.
